Assay results reported in PubChem BioAssay (NCI).
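Cells were grown in 96-well plates and exposed to each compound for 48 hours at five concentrations; endpoints were interpolated linearly between bracketing concentrations, or set to the highest concentration if not reached. Here, GI50 denotes the concentration required for 50% inhibition of growth. The concentration for full growth arrest is given as TGI.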

Assays:
Assay in all cases: growth of human tumour cells (NCI), 48 h
MDA-MB-468 breast = system: MDA-MB-468 breast
MDA-MB-231 breast = system: MDA-MB-231 breast
MOLT-4 leukemia = system: MOLT-4 leukemia
MALME-3M melanoma = system: MALME-3M melanoma
SN12C renal = system: SN12C renal
IGROV1 ovarian = system: IGROV1 ovarian
SK-MEL-5 melanoma = system: SK-MEL-5 melanoma
OVCAR-3 ovarian = system: OVCAR-3 ovarian
SNB-19 CNS = system: SNB-19 CNS
SF-268 CNS = system: SF-268 CNS
NCI-H23 lung = system: NCI-H23 lung
UACC-62 melanoma = system: UACC-62 melanoma
ACHN renal = system: ACHN renal
OVCAR-8 ovarian = system: OVCAR-8 ovarian
SW-620 colon = system: SW-620 colon
UACC-257 melanoma = system: UACC-257 melanoma
K-562 leukemia = system: K-562 leukemia
SK-MEL-28 melanoma = system: SK-MEL-28 melanoma
HT29 colon = system: HT29 colon
EKVX NSCLC = system: EKVX NSCLC
HCC-2998 colon = system: HCC-2998 colon
CCRF-CEM leukemia = system: CCRF-CEM leukemia
U251 CNS = system: U251 CNS
SR leukemia = system: SR leukemia
SK-OV-3 ovarian = system: SK-OV-3 ovarian
A498 renal = system: A498 renal
TK-10 renal = system: TK-10 renal
HCT-15 colon = system: HCT-15 colon
HOP-62 NSCLC = system: HOP-62 NSCLC
OVCAR-5 ovarian = system: OVCAR-5 ovarian
786-0 renal = system: 786-0 renal
RXF 393 renal = system: RXF 393 renal
NCI-H460 lung = system: NCI-H460 lung
KM12 colon = system: KM12 colon
MCF7 breast = system: MCF7 breast
CAKI-1 renal = system: CAKI-1 renal
LOX IMVI melanoma = system: LOX IMVI melanoma
A549 NSCLC = system: A549 NSCLC
DU-145 prostate = system: DU-145 prostate
HL-60(TB) leukemia = system: HL-60(TB) leukemia
SF-295 CNS = system: SF-295 CNS
NCI-H226 lung = system: NCI-H226 lung
M14 melanoma = system: M14 melanoma
HS 578T breast = system: HS 578T breast
HCT-116 colon = system: HCT-116 colon
OVCAR-4 ovarian = system: OVCAR-4 ovarian
MDA-MB-435 = system: MDA-MB-435
SF-539 CNS = system: SF-539 CNS
BT-549 breast = system: BT-549 breast
RPMI-8226 leukemia = system: RPMI-8226 leukemia
HOP-92 NSCLC = system: HOP-92 NSCLC
T-47D breast = system: T-47D breast
SK-MEL-2 melanoma = system: SK-MEL-2 melanoma
NCI-H522 lung = system: NCI-H522 lung
UO-31 renal = system: UO-31 renal
COLO 205 colon = system: COLO 205 colon
NCI/ADR-RES ovarian = system: NCI/ADR-RES ovarian
SNB-75 CNS = system: SNB-75 CNS
PC-3 prostate = system: PC-3 prostate

SMILES: CCOc1ccccc1[C@H]1C(C(=O)c2ccc(Cl)cc2)C2(N[C@@H]1c1ccccc1)C(=O)Nc1ccccc12 (stereo partly drawn)
- GI50 (MDA-MB-468 breast): 1.31 µM
- TGI (MDA-MB-468 breast): 8.19 µM
- GI50 (MDA-MB-231 breast): 5.37 µM
- TGI (MDA-MB-231 breast): 34.3 µM
- GI50 (MOLT-4 leukemia): 4.68 µM
- TGI (MOLT-4 leukemia): > 39.8 µM
- GI50 (MALME-3M melanoma): 7.4 µM
- TGI (MALME-3M melanoma): 18.6 µM
- GI50 (SN12C renal): 5.56 µM
- TGI (SN12C renal): 11.9 µM
- GI50 (IGROV1 ovarian): 8.69 µM
- TGI (IGROV1 ovarian): > 39.8 µM
- GI50 (SK-MEL-5 melanoma): 6.1 µM
- TGI (SK-MEL-5 melanoma): 12.2 µM
- GI50 (OVCAR-3 ovarian): 7.68 µM
- TGI (OVCAR-3 ovarian): > 39.8 µM
- GI50 (SNB-19 CNS): 16.6 µM
- TGI (SNB-19 CNS): > 39.8 µM
- GI50 (SF-268 CNS): 12.2 µM
- TGI (SF-268 CNS): > 39.8 µM
- GI50 (NCI-H23 lung): 7.78 µM
- TGI (NCI-H23 lung): > 39.8 µM
- GI50 (UACC-62 melanoma): 4.65 µM
- TGI (UACC-62 melanoma): 18.2 µM
- GI50 (ACHN renal): 10.1 µM
- TGI (ACHN renal): > 39.8 µM
- GI50 (OVCAR-8 ovarian): 11.9 µM
- TGI (OVCAR-8 ovarian): > 39.8 µM
- GI50 (SW-620 colon): 10.1 µM
- TGI (SW-620 colon): > 39.8 µM
- GI50 (UACC-257 melanoma): 8.91 µM
- TGI (UACC-257 melanoma): > 39.8 µM
- GI50 (K-562 leukemia): 9.06 µM
- TGI (K-562 leukemia): > 39.8 µM
- GI50 (SK-MEL-28 melanoma): 17.4 µM
- TGI (SK-MEL-28 melanoma): > 39.8 µM
- GI50 (HT29 colon): 7.26 µM
- TGI (HT29 colon): 36.1 µM
- GI50 (EKVX NSCLC): 8.62 µM
- TGI (EKVX NSCLC): > 39.8 µM
- GI50 (HCC-2998 colon): 7.9 µM
- TGI (HCC-2998 colon): 29.8 µM
- GI50 (CCRF-CEM leukemia): 29.2 µM
- TGI (CCRF-CEM leukemia): > 39.8 µM
- GI50 (U251 CNS): 13 µM
- TGI (U251 CNS): > 39.8 µM
- GI50 (SR leukemia): 9.21 µM
- TGI (SR leukemia): > 39.8 µM
- GI50 (SK-OV-3 ovarian): 22.1 µM
- TGI (SK-OV-3 ovarian): > 39.8 µM
- GI50 (A498 renal): 7.7 µM
- TGI (A498 renal): 20.7 µM
- GI50 (TK-10 renal): 15.6 µM
- TGI (TK-10 renal): > 39.8 µM
- GI50 (HCT-15 colon): 8.87 µM
- TGI (HCT-15 colon): > 39.8 µM
- GI50 (HOP-62 NSCLC): 18.9 µM
- TGI (HOP-62 NSCLC): > 39.8 µM
- GI50 (OVCAR-5 ovarian): 10.1 µM
- TGI (OVCAR-5 ovarian): > 39.8 µM
- GI50 (786-0 renal): 8.94 µM
- TGI (786-0 renal): > 39.8 µM
- GI50 (RXF 393 renal): 5.35 µM
- TGI (RXF 393 renal): 19.2 µM
- GI50 (NCI-H460 lung): 8 µM
- TGI (NCI-H460 lung): 21.5 µM
- GI50 (KM12 colon): 11.3 µM
- TGI (KM12 colon): > 39.8 µM
- GI50 (MCF7 breast): 6.78 µM
- TGI (MCF7 breast): > 39.8 µM
- GI50 (CAKI-1 renal): 4.08 µM
- TGI (CAKI-1 renal): > 39.8 µM
- GI50 (LOX IMVI melanoma): 2.85 µM
- TGI (LOX IMVI melanoma): 10.3 µM
- GI50 (A549 NSCLC): 10.4 µM
- TGI (A549 NSCLC): > 39.8 µM
- GI50 (DU-145 prostate): 13.1 µM
- TGI (DU-145 prostate): > 39.8 µM
- GI50 (HL-60(TB) leukemia): 5.6 µM
- TGI (HL-60(TB) leukemia): 32.4 µM
- GI50 (SF-295 CNS): 7.88 µM
- TGI (SF-295 CNS): > 39.8 µM
- GI50 (NCI-H226 lung): 5.44 µM
- TGI (NCI-H226 lung): 18.5 µM
- GI50 (M14 melanoma): 7.69 µM
- TGI (M14 melanoma): > 39.8 µM
- GI50 (HS 578T breast): 6.08 µM
- TGI (HS 578T breast): 22.9 µM
- GI50 (HCT-116 colon): 6.75 µM
- TGI (HCT-116 colon): > 39.8 µM
- GI50 (OVCAR-4 ovarian): 14.8 µM
- TGI (OVCAR-4 ovarian): > 39.8 µM
- GI50 (MDA-MB-435): 4.06 µM
- TGI (MDA-MB-435): 16.3 µM
- GI50 (SF-539 CNS): 23.3 µM
- TGI (SF-539 CNS): > 39.8 µM
- GI50 (BT-549 breast): 6.89 µM
- TGI (BT-549 breast): 22.8 µM
- GI50 (RPMI-8226 leukemia): 8.82 µM
- TGI (RPMI-8226 leukemia): > 39.8 µM
- GI50 (HOP-92 NSCLC): 6.65 µM
- TGI (HOP-92 NSCLC): 29.3 µM
- GI50 (T-47D breast): 6.48 µM
- TGI (T-47D breast): > 39.8 µM
- GI50 (SK-MEL-2 melanoma): 7.37 µM
- TGI (SK-MEL-2 melanoma): 17.5 µM
- GI50 (NCI-H522 lung): 6.14 µM
- TGI (NCI-H522 lung): 22.8 µM
- GI50 (UO-31 renal): 5.82 µM
- TGI (UO-31 renal): > 39.8 µM
- GI50 (COLO 205 colon): 6.82 µM
- TGI (COLO 205 colon): 14 µM
- GI50 (NCI/ADR-RES ovarian): 5.64 µM
- TGI (NCI/ADR-RES ovarian): 16.6 µM
- GI50 (SNB-75 CNS): 6.24 µM
- TGI (SNB-75 CNS): > 39.8 µM
- GI50 (PC-3 prostate): 2.77 µM
- TGI (PC-3 prostate): > 39.8 µM
